# Source: the CATMoS acute toxicity set (Mansouri et al. 2021)
# Test: GHS categories as the set defines them, by LD50: 1 up to 5, 2 up to 50, 3 up to 300, 4 up to 2000, 5 above 2000 mg/kg
# Conditions: rat; in vivo; po
row,SMILES,GHS category
1,C[C@]12Cc3nonc3C[C@@H]1CC[C@@H]1[C@@H]2CC[C@@]2(C)[C@H]1CC[C@]2(C)O,5
2,O=C(Nc1ccccc1)N(Cc1ccc(Cl)cc1)C1CCCC1,5
3,CCCCCC1Nc2cc(C(F)(F)F)c(S(N)(=O)=O)cc2S(=O)(=O)N1 (stereo not drawn),5
4,CN1CC(c2ccn(-c3ccccc3)n2)CC2c3cccc4[nH]cc(c34)CC21 (stereo not drawn),4
5,CC(=O)Nc1ccc(/N=N/c2c(S(=O)(=O)O)cc3cc(NC(=O)Nc4ccc5c(O)c(/N=N/c6ccccc6)c(S(=O)(=O)O)cc5c4)ccc3c2O)cc1,5
6,CN1C(=O)C(O)N=C(c2ccccc2Cl)c2cc(Cl)ccc21 (stereo not drawn),5
7,CCC(C)C(NC(=O)C(Cc1cnc[nH]1)NC(=O)C(CCSC)NC(=O)C(CS)NC(=O)C(NC(=O)CNC(=O)CNC(=O)C(CC(N)=O)NC(=O)C(CC(C)C)NC(=O)C(CS)NC(=O)C(Cc1ccc(O)cc1)NC(=O)CNC(=O)C(CC(=O)O)NC(=O)C(Cc1ccc(O)cc1)NC(=O)C(CO)NC(=O)C(CO)NC(=O)C1CCCN1C(=O)C(CS)NC(=O)CNC(=O)C1CCCN1C(=O)C(Cc1ccc(O)cc1)NC(=O)C(CO)NC(=O)C(N)CC(N)=O)C(C)C)C(=O)NC(CCC(=O)O)C(=O)NC(CO)C(=O)NC(CC(C)C)C(=O)NC(CC(=O)O)C(=O)NC(CO)C(=O)NC(Cc1ccc(O)cc1)C(=O)NC(C(=O)NC(CS)C(=O)NC(CC(N)=O)C(=O)NC(CS)C(=O)NC(C(=O)NC(C(=O)NCC(=O)NC(Cc1ccc(O)cc1)C(=O)NC(CO)C(=O)NCC(=O)NC(CC(=O)O)C(=O)NC(CCCNC(=N)N)C(=O)NC(CS)C(=O)NC(CCC(N)=O)C(=O)NC(C(=O)NC(CCCNC(=N)N)C(=O)NC(CC(=O)O)C(=O)NC(CC(C)C)C(=O)NC(CCCNC(=N)N)C(=O)NC(Cc1c[nH]c2ccccc12)C(=O)NC(Cc1c[nH]c2ccccc12)C(=O)NC(CCC(=O)O)C(=O)NC(CC(C)C)C(=O)NC(CCCNC(=N)N)C(=O)O)C(C)O)C(C)CC)C(C)C)C(C)O (stereo not drawn),5
8,C[C@H]1C[C@@H]2[C@H]([C@@H](O)C[C@@]3(C)[C@H]2CC[C@]3(O)C(=O)COC(=O)CCC(=O)O)[C@@]2(C)C=CC(=O)C=C12,5
9,COc1ccc(Br)cc1,4
10,CC(C)=CCC/C(C)=C/COC(=O)C(C)C,5
11,O=C(O)C(=O)Nc1cccc(-c2nnn[nH]2)c1,5
12,CC1=C(/C=C/C(C)=C/C=C/C(C)=C/C=C/C=C(C)/C=C/C=C(C)/C=C/C2=C(C)CCCC2(C)C)C(C)(C)CCC1,5
13,C[C@@H]1C[C@@H](O)CC(C)(C)C1=O,5
14,COc1ccc(Cl)cc1N/C(=N/C1CCCCC1)c1ccccc1C,4
15,CC(C)(C)N(Sc1nc2ccccc2s1)Sc1nc2ccccc2s1,5
16,CCCCCCC(C(C)=O)C(=O)OCC (stereo not drawn),5
17,Cc1ccc(OP(=O)(Oc2ccccc2)Oc2ccccc2)cc1,5
18,NC(=O)NCCO,5
19,COCC1COC(Cn2cncn2)(c2cc3cc(Cl)cc(Cl)c3o2)O1 (stereo not drawn),4
20,CCN(Cc1cccc(S(=O)(=O)O)c1)c1ccc(C(=C2C=CC(=[N+](CC)Cc3cccc(S(=O)(=O)O)c3)C=C2)c2ccccc2S(=O)(=O)[O-])cc1,5
21,CCN(C(=O)Cl)C1CCCCC1,4
22,CNC(=O)c1cc(C(O)CNC(C)(C)CCN2C(=O)OC(C)(C)c3ccccc32)ccc1O (stereo not drawn),4
23,Oc1c(-c2[nH]c3ccccc3c2O)[nH]c2ccccc12,5
24,CC(=CCc1c(O)c(Cl)c(C)c(C=O)c1O)CCC=C(C)[C@@H]1CC(=O)C(C)(C)O1,5
25,CC[C@H]1C[C@@H]2CC[C@@H](O2)[C@@H](C)C(=O)O[C@H](CC)C[C@H]2CC[C@H](O2)[C@H](C)C(=O)O[C@@H](CC)C[C@@H]2CC[C@@H](O2)[C@@H](C)C(=O)O[C@H](CC)C[C@H]2CC[C@H](O2)[C@H](C)C(=O)O1,5
26,Cc1cc(CCC(=O)OCCOCCOCCOC(=O)CCc2cc(C)c(O)c(C(C)(C)C)c2)cc(C(C)(C)C)c1O,5
27,CCCc1c(Cc2ccc(-c3sccc3-c3nn[nH]n3)cc2)c(=O)nc2nc(C)[nH]n12,4
28,CC(C)c1ccc(S(=O)(=O)O)cc1,5
